According to ChEMBL document CHEMBL5252536, “Discovery of VU0467485/AZ13713945: An M4 PAM Evaluated as a Preclinical Candidate for the Treatment of Schizophrenia” (ACS Med Chem Lett, 2017):

Experiments:
[1] = biological target: T1, Muscarinic acetylcholine receptor M4 (Rattus norvegicus) (UniProt P08485); assay: Positive allosteric modulator activity at rat M4 receptor expressed in CHO cells co-expressing Gqi5 assessed as maximal response to ACh by calcium mobilization assay relative to contol; format: cell-based; settings: filed as positive allosteric modulator
T1 sequence (whole entry): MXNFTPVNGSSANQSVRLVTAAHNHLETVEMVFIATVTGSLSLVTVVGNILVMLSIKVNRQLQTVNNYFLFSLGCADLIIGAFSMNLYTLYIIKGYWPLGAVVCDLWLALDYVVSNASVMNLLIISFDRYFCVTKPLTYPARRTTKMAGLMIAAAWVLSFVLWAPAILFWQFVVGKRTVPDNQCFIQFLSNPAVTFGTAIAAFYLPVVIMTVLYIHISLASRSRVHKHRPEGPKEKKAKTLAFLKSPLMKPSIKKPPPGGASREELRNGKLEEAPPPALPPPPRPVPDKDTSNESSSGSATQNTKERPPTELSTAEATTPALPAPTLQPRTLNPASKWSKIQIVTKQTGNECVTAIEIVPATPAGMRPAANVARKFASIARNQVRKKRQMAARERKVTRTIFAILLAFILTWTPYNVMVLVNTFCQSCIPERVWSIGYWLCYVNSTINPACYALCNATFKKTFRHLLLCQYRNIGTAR

Cytochrome P450 1A2 [2] = biological target: T2, Cytochrome P450 1A2 (Homo sapiens, UniProt P05177); assay: Inhibition of CYP1A2 in human liver microsomes using phenacetin as substrate incubated for 15 mins in presence of NADPH by LC/MS/MS analysis; format: ADME, Microsome
T2 sequence (P05177 whole entry): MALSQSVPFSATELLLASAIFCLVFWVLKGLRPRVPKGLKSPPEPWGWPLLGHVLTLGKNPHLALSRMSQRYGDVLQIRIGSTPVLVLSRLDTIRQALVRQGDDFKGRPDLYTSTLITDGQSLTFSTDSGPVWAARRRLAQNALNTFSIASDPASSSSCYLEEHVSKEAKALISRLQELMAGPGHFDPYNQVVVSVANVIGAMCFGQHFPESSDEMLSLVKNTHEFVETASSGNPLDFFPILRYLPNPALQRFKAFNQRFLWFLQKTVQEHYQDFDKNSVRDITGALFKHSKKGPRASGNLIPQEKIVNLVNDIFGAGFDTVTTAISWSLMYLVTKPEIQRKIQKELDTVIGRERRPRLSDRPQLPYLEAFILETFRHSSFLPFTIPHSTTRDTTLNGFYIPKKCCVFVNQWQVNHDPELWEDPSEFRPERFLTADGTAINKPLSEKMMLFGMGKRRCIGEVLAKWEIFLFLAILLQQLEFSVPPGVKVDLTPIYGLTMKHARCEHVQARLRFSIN

[3] = Cmax in Beagle dog at 3 mg/kg,po by LC-MS/MS analysis; format: ADME, organism-based, Canis lupus familiaris; set-up: dose 3 mg/kg, route po; settings: in vivo
[4] = Ratio of drug concentration in Beagle dog brain to plasma at 3 mg/kg, po by LC-MS/MS analysis; format: ADME, organism-based, Canis lupus familiaris; settings: read-out: BPR
[5] = Plasma protein binding in cynomolgus monkey assessed as unbound fraction incubated for 4 hrs by LC/MS/MS analysis; format: ADME, cell-free, Macaca fascicularis
[6] = Positive allosteric modulator activity at cynomolgus monkey M2 receptor expressed in CHO cells co-expressing Gqi5 in presence of EC20 concentration of acetylcholine by calcium mobilization assay; format: cell-based; settings: Macaca fascicularis
Cytochrome P450 1A2 [7] = biological target: T2, Cytochrome P450 1A2; assay: Activation of CYP1A2 in human hepatocyte using phenacetin as substrate preincubated for 5 days followed by substrate addition and measured after 1 hr by LC-MS/MS analysis; format: ADME, cell-based
[8] = Elimination half life in Cynomolgous monkey at 0.2 mg/kg,iv by LC-MS/MS analysis; settings: cynomolgus monkey, in vivo, read-out: beta t1/2 (converted)
[9] = Volume of distribution at steady state in Cynomolgous monkey at 0.2 mg/kg,iv by LC-MS/MS analysis; settings: cynomolgus monkey, in vivo, read-out: Vdss
CHO [10] = assay: Positive allosteric modulator activity at cynomolgus monkey M4 receptor expressed in CHO cells co-expressing Gqi5 assessed as maximal response to ACh by calcium mobilization assay relative to contol; format: cell-based; settings: Macaca fascicularis, filed as positive allosteric modulator
[11] = Clearance in Cynomolgous monkey plasma at 0.2 mg/kg,iv by LC-MS/MS analysis; settings: cynomolgus monkey
[12] = Oral bioavailability in Sprague-Dawley rat at 3 mg/kg by LC-MS/MS analysis; format: ADME, organism-based; settings: in vivo
[13] = Positive allosteric modulator activity at cynomolgus monkey M4 receptor expressed in CHO cells co-expressing Gqi5 in presence of EC20 concentration of acetylcholine by calcium mobilization assay; format: cell-based; settings: Macaca fascicularis
Cytochrome P450 1A2 [14] = biological target: T2, Cytochrome P450 1A2; assay: […] of human CYP1A2 mediated drug metabolism incubated for 5 mins followed by NADPH addition measured after 1 hr by LC-UV/MS analysis relative to control; format: ADME; settings: recombinant enzyme, 1.083 h, time 65 min
Cytochrome P450 2C9 = Cytochrome P450 2C9 (Homo sapiens, UniProt P11712); assay: Inhibition of CYP2C9 in human liver microsomes using diclofenac as substrate incubated for 15 mins in presence of NADPH by LC/MS/MS analysis; format: ADME, Microsome
CHO [15] = assay: Positive allosteric modulator activity at dog M4 receptor expressed in CHO cells co-expressing Gqi5 assessed as maximal response to ACh by calcium mobilization assay relative to contol; format: cell-based; settings: Canis lupus familiaris, filed as positive allosteric modulator
[16] = biological target: Voltage-gated inwardly rectifying potassium channel KCNH2 (Homo sapiens, UniProt Q12809); assay: Inhibition of hERG cardiac ion channel; format: toxicity
[17] = Terminal brain concentration in rat model of amphetamine-induced hyperlocomotion activity at 1 to 10 mg/kg, po measured after 1.5 hrs; format: ADME, organism-based; settings: dose 1-10 mg/kg, read-out: Ct
Cytochrome P450 2D6 = Cytochrome P450 2D6 (Homo sapiens, UniProt P10635); assay: Inhibition of CYP2D6 in human liver microsomes using dextromethorphan as substrate incubated for 15 mins in presence of NADPH by LC/MS/MS analysis; format: ADME, Microsome
[18] = Oral bioavailability in Beagle dog at 3 mg/kg by LC-MS/MS analysis; format: ADME, organism-based, Canis lupus familiaris; settings: in vivo
[19] = Volume of distribution at steady state in Sprague-Dawley rat at 3 mg/kg,po or 1 mg/kg,iv by LC-MS/MS analysis; format: ADME, organism-based; settings: in vivo
CYP3A4 (printed CYP34A) = CYP3A4 (printed CYP34A) (Homo sapiens, UniProt P08684); assay: Activation of CYP34A in human hepatocyte using midazolam as substrate preincubated for 5 days followed by substrate addition and measured after 1 hr by LC-MS/MS analysis relative to control; format: ADME, cell-based; settings: hepatocytes, probe midazolam, time 121 hrs
Chain of CYP3A4 (printed CYP34A) (P08684 whole entry): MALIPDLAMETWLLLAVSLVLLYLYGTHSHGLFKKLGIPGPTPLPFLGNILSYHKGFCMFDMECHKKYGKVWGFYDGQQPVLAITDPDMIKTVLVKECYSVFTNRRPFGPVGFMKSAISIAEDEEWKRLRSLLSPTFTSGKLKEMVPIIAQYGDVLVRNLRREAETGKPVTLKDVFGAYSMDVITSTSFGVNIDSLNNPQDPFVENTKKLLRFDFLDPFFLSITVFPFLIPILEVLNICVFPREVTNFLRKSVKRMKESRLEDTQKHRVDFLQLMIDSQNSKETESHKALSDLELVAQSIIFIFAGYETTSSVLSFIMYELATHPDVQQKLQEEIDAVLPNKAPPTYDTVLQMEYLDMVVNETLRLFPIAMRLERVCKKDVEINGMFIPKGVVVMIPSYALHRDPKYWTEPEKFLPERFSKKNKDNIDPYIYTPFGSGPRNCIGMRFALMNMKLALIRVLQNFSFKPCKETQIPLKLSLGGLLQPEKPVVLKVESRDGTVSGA

Chain of Cytochrome P450 2D6 (P10635 whole entry): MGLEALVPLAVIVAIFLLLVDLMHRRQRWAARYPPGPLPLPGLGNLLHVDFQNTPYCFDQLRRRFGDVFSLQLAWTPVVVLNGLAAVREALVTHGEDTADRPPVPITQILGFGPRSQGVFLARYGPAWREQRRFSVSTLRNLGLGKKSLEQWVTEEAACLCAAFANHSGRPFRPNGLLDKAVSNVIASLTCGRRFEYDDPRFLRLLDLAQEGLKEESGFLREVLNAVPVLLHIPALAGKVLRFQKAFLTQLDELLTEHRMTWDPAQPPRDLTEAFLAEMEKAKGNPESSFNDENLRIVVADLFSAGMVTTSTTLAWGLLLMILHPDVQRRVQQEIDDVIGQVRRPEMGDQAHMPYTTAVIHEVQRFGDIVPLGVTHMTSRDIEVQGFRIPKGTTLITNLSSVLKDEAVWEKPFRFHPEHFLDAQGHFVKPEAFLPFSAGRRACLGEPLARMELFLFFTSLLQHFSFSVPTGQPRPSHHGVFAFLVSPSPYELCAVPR
Chain of Cytochrome P450 2C9 (P11712 whole entry): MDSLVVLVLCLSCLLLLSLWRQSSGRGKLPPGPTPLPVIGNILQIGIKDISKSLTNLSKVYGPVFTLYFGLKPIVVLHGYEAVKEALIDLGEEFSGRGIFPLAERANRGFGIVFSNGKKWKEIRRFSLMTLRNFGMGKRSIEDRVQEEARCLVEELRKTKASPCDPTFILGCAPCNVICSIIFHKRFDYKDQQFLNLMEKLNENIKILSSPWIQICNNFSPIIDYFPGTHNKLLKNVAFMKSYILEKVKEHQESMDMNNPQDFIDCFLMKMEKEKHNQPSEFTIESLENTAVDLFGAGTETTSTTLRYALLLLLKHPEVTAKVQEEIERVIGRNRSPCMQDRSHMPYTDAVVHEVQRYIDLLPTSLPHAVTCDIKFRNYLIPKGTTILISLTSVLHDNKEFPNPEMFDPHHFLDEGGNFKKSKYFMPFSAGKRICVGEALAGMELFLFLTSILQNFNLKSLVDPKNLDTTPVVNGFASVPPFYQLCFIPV
Chain of Voltage-gated inwardly rectifying potassium channel KCNH2 (Q12809 whole entry): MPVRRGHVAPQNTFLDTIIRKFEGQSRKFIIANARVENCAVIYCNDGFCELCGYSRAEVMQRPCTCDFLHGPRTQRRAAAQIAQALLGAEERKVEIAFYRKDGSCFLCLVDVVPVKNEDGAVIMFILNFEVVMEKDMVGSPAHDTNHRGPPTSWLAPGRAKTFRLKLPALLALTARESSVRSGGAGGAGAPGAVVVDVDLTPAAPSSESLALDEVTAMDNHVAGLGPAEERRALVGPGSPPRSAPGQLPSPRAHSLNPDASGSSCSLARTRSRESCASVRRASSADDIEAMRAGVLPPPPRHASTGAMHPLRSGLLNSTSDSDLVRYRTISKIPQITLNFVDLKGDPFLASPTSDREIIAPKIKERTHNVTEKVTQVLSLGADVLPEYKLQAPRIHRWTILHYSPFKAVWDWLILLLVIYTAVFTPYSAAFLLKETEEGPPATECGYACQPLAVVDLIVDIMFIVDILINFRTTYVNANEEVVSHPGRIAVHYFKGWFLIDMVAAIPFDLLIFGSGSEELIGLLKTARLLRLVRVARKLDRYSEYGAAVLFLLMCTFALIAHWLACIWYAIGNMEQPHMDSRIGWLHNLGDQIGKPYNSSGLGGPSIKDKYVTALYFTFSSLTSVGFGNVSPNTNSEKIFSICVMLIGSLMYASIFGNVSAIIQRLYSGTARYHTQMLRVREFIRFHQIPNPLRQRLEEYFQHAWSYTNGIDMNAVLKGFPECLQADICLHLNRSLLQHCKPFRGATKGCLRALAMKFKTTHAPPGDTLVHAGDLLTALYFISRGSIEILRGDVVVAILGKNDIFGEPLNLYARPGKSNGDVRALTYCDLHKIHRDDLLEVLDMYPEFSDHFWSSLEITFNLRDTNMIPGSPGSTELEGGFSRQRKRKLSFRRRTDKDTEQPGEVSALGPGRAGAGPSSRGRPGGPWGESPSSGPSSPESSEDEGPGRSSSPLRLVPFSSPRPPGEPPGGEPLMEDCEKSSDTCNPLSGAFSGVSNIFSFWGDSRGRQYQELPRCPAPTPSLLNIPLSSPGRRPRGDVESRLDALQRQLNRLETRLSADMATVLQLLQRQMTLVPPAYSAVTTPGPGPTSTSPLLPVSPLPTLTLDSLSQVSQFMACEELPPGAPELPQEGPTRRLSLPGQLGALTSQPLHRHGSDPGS

Q: For `COc1ccc(CNC(=O)c2sc3nnc(C)c(C)c3c2N)cc1F`, which Activity [1] is on record?
A: Its Activity is 68.7%.

Q: What about the IC50 (Cytochrome P450 1A2 [2]) of the same compound?
A: The IC50 was > 30 µM.

Q: And the Cmax [3]?
A: Its Cmax is 220 nM.

Q: What about the Kp [4] of the same compound?
A: Its Kp is 1.

Q: And the fraction unbound at 4 h [5]?
A: The fraction unbound at 4 h was 0.091.

Q: What about the EC50 [6] of the same compound?
A: Its EC50 is > 30 µM.

Q: And the EC50 (Cytochrome P450 1A2 [7])?
A: Its EC50 is > 50 µM.

Q: What about the half-life [8] of the same compound?
A: The half-life was 28.8 min.

Q: And the Vd [9]?
A: Its Vd is 0.88 L/kg.

Q: And the Activity (CHO [10])?
A: The Activity was 74%.

Q: What about the clearance [11] of the same compound?
A: Its clearance is 25 mL/min/kg.

Q: What about the bioavailability [12] of the same compound?
A: The bioavailability was 79%.

Q: What about the EC50 [13] of the same compound?
A: Its EC50 is 0.102 µM.

Q: What about the Activity (Cytochrome P450 1A2 [14]) of the same compound?
A: The Activity was 21.4%.

Q: What about the IC50 (Cytochrome P450 2C9) of the same compound?
A: Its IC50 is > 30 µM.

Q: And the Activity (CHO [15])?
A: The Activity was 49%.

Q: What about the IC50 [16] of the same compound?
A: The IC50 was > 33 µM.

Q: What about the concentration at 1.5 h [17] of the same compound?
A: Its concentration at 1.5 h is 560 nM.

Q: What about the IC50 (Cytochrome P450 2D6) of the same compound?
A: Its IC50 is > 30 µM.

Q: What about the bioavailability [18] of the same compound?
A: Its bioavailability is 9.5%.

Q: What about the Vdss [19] of the same compound?
A: The Vdss was 1.5 L/kg.

Q: And the Emax at 1 h (CYP3A4 (printed CYP34A))?
A: The Emax at 1 h was ≤ 1%.
